Source: patent US20070202120A1, “Yellow Fever Mosquito Deoxyribonucleoside Kinases And Its Use” (priority 2003, published 2007)

How the values were obtained:
[1] = test system: deoxyribonucleoside kinases from Aedes aegypti (PZG318); assay: Nucleoside kinase activity (DE-81 filter paper assay, tritium labelled substrates) in extracts of KY895 cells transformed with PZG318; type: biochemical; settings: for Phosphorylation / activation by the mosquito deoxyribonucleoside kinase (in words): extract of KY895 transformed with PZG318; for Deoxyribonucleoside kinase specific activity in extract: substrate at fixed concentration of 100 μM
Procedure: (§1) This example describes how E. coli KY895 were transformed with the plasmid obtained according to Example 1, in order to express mosquito dNK.
(§2) KY895 cells were transformed by the expression plasmid of Example 1 using standard techniques, e.g. as described by e.g. Sambrook et al. [Sambrook et al.; Molecular Cloning: A Laboratory Manual, Cold Spring Harbor Lab., Cold Spring Harbor, N.Y. 1989].
(§3) Transformed cells were grown to an OD600 nm of 0.5-0.6 in LB/Ampicillin (100 μg/ml) medium at 37° C. and protein expression was induced by addition of 100 μM IPTG. The cells were further grown for 4 h at 25° C. and subsequently harvested by centrifugation. The cell pellet was subjected to sonification in the binding buffer A (20 mM NaPO4 pH 7,3; 150 mM NaCl; 10% Glycerol; and 0.1% Triton X-100) and subjected to centrifugation at 10,000×g for 30 minutes. Cell free extract was used for enzymatic activity assays.
Nucleoside kinase activities were determined by initial velocity measurments based on four time sample by the DE-81 filter paper assay using tritium labelled substrates. The assays were performed as described by Munch-Petersen et al. [Munch-Petersen B, Knecht W, Lenz C, Søndergaard L, Piskur J: Functional expression of a multisubstrate deoxyribonucleoside kinase from Drosophila melanogaster and its C-terminal deletion mutants; J. Biol. Chem. 2000 275 6673-6679].
The protein concentration was determined according to Bradford with BSA as standard protein [Bradford M M: A rapid and sensitive method for the quantitation of microgram quantities of protein utilizing the principle of protein-dye binding; Anal. Biochem. 1976 72 248-254]. SDS-PAGE was done according to the procedure of Laemmli[Laemmil U K: Cleavage of structural proteins during the assembly of the head of bacteriophage T4; Nature 1970 227 680-685], and proteins were visualized by Coomassie staining to verify recombinant protein expression.
The natural deoxyribonucleoside and deoxyribonucleoside analogs were tested at a fixed concentration of 100 μM. The specific activity in each extract is given in mU/ml.

[2] = test system: Extracts of KY895 Cells; assay: Nucleoside kinase activity (DE-81 filter paper assay) in control extracts of KY895 cells (cells only, empty vector pGEX-2T); type: biochemical, E. coli; settings: extract of KY895 transformed with pGEX-2T (empty vector); substrate 100 μM; n.d. = not detectable
Procedure: as §1, §2, §3
Nucleoside kinase activities were determined by initial velocity measurments based on four time sample by the DE-81 filter paper assay using tritium labelled substrates. […]
The protein concentration was determined according to Bradford with BSA as standard protein [Bradford M M: A rapid and sensitive method for the quantitation of microgram quantities of protein utilizing the principle of protein-dye binding; Anal. Biochem. 1976 72 248-254]. […]

[3] = test system: KY895; assay: Growth of E. coli KY895 on nucleoside analog plates, controls (cells only, empty vector pGEX-2T); type: cell-based; settings: 24 hours at 37° C.
Procedure: (§4) Deoxyribonucleoside kinases are of interest as suicide-genes to be used in gene-mediated therapy of cancer or viral infections. In this example the potential of the mosquito kinase of the invention to convert different nucleoside analogs are compared to that of the human Herpes simplex virus 1 thymidine kinase (HSV1-TK) in a bacterial test system.
(§5) The experiment was carried out essentially as described by Knecht et al. [Knecht W. Munch-Petersen B and Piskur J: identification of residues involved in the specificity and regulation of the highly efficient multisubstrate deoxyribonucleoside kinase from Drosophila melanogaster; J. Mol. Biol. […] 301 827-837]. Briefly, overnight cultures of transformed KY895 were diluted 200-fold in 10% glyercol and 2 μl drops of the dilutions were spotted on M9 minimal medium plates [Ausubel F, Brent R, Kingston R E, Moore D D, Seldman J G, Smitf J A & Struhl K (Eds.): Short protocols in molecular biology; 3rd edition (1995) pp. 1-2, Wiley, USA] supplemented with 0.2% glucose, 0.1% casamino acids, 100 μg/ml ampicillin and with or without nucleoside analogs. Growth was inspected visually after 24 hours of incubation at 37° C.
pGEX-2T is the empty vector and is available from Amersham-Pharmacia;

[4] = test system: KY895 transformed with PZG318; assay: Growth of transformed E. coli KY895 on nucleoside analog plates, transformed with PZG318 (mosquito dNK kinase); type: cell-based
Procedure: as §4, §5

[5] = test system: KY895 transformed with pGEX-2T-HSV1-TK; assay: Growth of transformed E. coli KY895 on nucleoside analog plates, transformed with pGEX-2T-HSV1-TK; type: cell-based; settings: 24 hours at 37° C.
Procedure: as §4, §5

| Compound | Phosphorylation / activation by the mosquito deoxyribonucleoside kinase (in words) [1] | Deoxyribonucleoside kinase specific activity in extract [1] [mU/ml] | Deoxyribonucleoside kinase specific activity in extract [2] [mU/ml] | dFdC LD100 ([3]; KY895 cells only) [nM] | dFdC LD100 ([3]; KY895 transformed with pGEX-2T (empty vector)) [nM] | LD100 with mosquito dNK kinase (PZG318) lower than that of HSV1-TK ([4]; KY895 on nucleoside analog plates, PZG318 versus HSV1-TK) | dFdC LD100 ([4]; KY895 transformed with PZG318, M9 plates, growth inspected after 24 hours at 37° C.) [nM] | dFdC LD100 [5] [nM] |
| --- | --- | --- | --- | --- | --- | --- | --- | --- |
| Nc1nc2c(ncn2COCCO)c(=O)[nH]1 [ACV, acyclovir] | also activated | 0.3 |  |  |  |  |  |  |
| Nc1nc(O)c2ncn(COC(CO)CO)c2n1 [GCV, gancyclovir] | also activated | 0.7 |  |  |  |  |  |  |
| Cc1cn([C@H]2C[C@H](O)[C@@H](CO)O2)c(=O)[nH]c1=O [Thd, thymidine] | able to phosphorylate | 125 |  |  |  |  |  |  |
| Nc1ncnc2c1ncn2[C@H]1C[C@H](O)[C@@H](CO)O1 [dAdo, deoxyadenosine] | able to phosphorylate | 364 |  |  |  |  |  |  |
| Nc1ccn([C@H]2C[C@H](O)[C@@H](CO)O2)c(=O)n1 [dCyt, deoxycytidine] | able to phosphorylate | 124.5 | 0.1 |  |  |  |  |  |
| Nc1ccn([C@@H]2O[C@H](CO)[C@@H](O)C2(F)F)c(=O)n1 [dFdC, 2′,2′-difluorodeoxycytidine] | much stronger than dCyt | 228 |  | >100 | >100 | at least 30 fold | 3.16 | >100 |
| Nc1nc2c(ncn2[C@H]2C[C@H](O)[C@@H](CO)O2)c(=O)[nH]1 [dGuo, deoxyguanosine] | able to phosphorylate | 214.7 |  |  |  |  |  |  |
